Measurements as given in patent publication US9487483B2, “Complement pathway modulators and uses thereof” (priority 2012, dated 2016).

target: Recombinant human factor D (Homo sapiens (Human), UniProt P00746); assay: biochemical; assay type: biochemical; conditions: Factor D inhibition data using Method 1; substrate Z-Lys-thiobenzyl, fluorescence readout; read-out: IC50
Sequence (P00746 26-253): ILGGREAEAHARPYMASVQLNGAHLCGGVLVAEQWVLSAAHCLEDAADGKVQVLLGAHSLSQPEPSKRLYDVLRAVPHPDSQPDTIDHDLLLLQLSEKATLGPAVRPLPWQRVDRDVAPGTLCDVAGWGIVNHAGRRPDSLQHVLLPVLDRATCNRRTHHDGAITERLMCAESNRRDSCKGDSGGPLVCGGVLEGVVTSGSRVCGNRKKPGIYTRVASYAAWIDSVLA

First: CC(=O)c1nn(CC(=O)N2[C@@H]3C[C@@H]3C[C@H]2C(=O)NC2CC(C)(C)C2)c2ccc(OCc3ncccn3)cc12 [Example 103, (1R,3S,5R)-2-{2-[3-Acetyl-5-(pyrimidin-2-ylmethoxy)-indazol-1-yl]-acetyl}-2-aza-bicyclo[3.1.0]hexane-3-carboxylic acid (3,3-dimethyl-cyclobutyl)-amide]
Second: CC1(C)C[C@H](O)C[C@@H](NC(=O)[C@@H]2C[C@H]3C[C@H]3N2C(=O)Cn2nc(C(N)=O)c3ccccc32)C1 [Example 108, 1-{2-[(1R,3S,5R)-3-((1S,5S)-5-Hydroxy-3,3-dimethyl-cyclohexylcarbamoyl)-2-aza-bicyclo[3.1.0]hex-2-yl]-2-oxo-ethyl}-1H-indazole-3-carboxylic acid amide]
The IC50 of the first is 62-fold lower: 36 nM for the first, 2230 nM for the second. The first is the more potent here.

Compared with CC1(C)C[C@@H](O)C[C@H](NC(=O)[C@@H]2C[C@H]3C[C@H]3N2C(=O)Cn2nc(C(N)=O)c3ccccc32)C1 [Example 109, 1-{2-[(1R,3S,5R)-3-((1R,5R)-5-Hydroxy-3,3-dimethyl-cyclohexylcarbamoyl)-2-aza-bicyclo[3.1.0]hex-2-yl]-2-oxo-ethyl}-1H-indazole-3-carboxylic acid amide], CC1(O)CCCC(NC(=O)[C@@H]2C[C@H]3C[C@H]3N2C(=O)Cn2nc(C(N)=O)c3ccccc32)C1 (stereo partly drawn) [Example 123, 1-(2-((1R,3S,5R)-3-(3-hydroxy-3-methylcyclohexylcarbamoyl)-2-azabicyclo[3.1.0]hexan-2-yl)-2-oxoethyl)-1H-indazole-3-carboxamide] is 33-fold higher in IC50: 28 nM for the first, 920 nM for the second. The first is the more potent here.

Going from CC1(C)CCCC(NC(=O)[C@@H]2C[C@@]3(CO)C[C@H]3N2C(=O)Cn2nc(C(N)=O)c3ccccc32)C1 (stereo partly drawn) [Example 110, 1-{2-[(1R,3S,5S)-3-(3,3-Dimethyl-cyclohexylcarbamoyl)-5-hydroxymethyl-2-aza-bicyclo[3.1.0]hex-2-yl]-2-oxo-thyl}-1H-indazole-3-carboxylic acid amide] to CC1(C)CCC[C@@H](NC(=O)[C@@H]2C[C@@]3(CO)C[C@H]3N2C(=O)Cn2nc(C(N)=O)c3ccccc32)C1 [Example 111, 1-{2-[(1R,3S,5S)-3-((R)-3,3-Dimethyl-cyclohexylcarbamoyl)-5-hydroxymethyl-2-aza-bicyclo[3.1.0]hex-2-yl]-2-oxo-ethyl}-1H-indazole-3-carboxylic acid amide], the IC50 falls from 48 nM to 10 nM (4.8-fold).

Compared with CC1(C)CCC[C@H](NC(=O)[C@@H]2C[C@@]3(CO)C[C@H]3N2C(=O)Cn2nc(C(N)=O)c3ccccc32)C1 [Example 112, 1-{2-[(1R,3S,5S)-3-((S)-3,3-Dimethyl-cyclohexylcarbamoyl)-5-hydroxymethyl-2-aza-bicyclo[3.1.0]hex-2-yl]-2-oxo-ethyl}-1H-indazole-3-carboxylic acid amide], CC(=O)c1nn(CC(=O)N2[C@H](C(=O)N[C@@H]3CCCC(C)(C)C3)C[C@@]3(CO)C[C@@H]23)c2ncccc12 [Example 115, (1R,3S,5S)-2-[2-(3-Acetyl-pyrazolo[3,4-b]pyridin-1-yl)-acetyl]-5-hydroxymethyl-2-aza-bicyclo[3.1.0]hexane-3-carboxylic acid ((R)-3,3-dimethyl-cyclohexyl)-amide] is 17-fold lower in IC50: 370 nM for the first, 22 nM for the second.

Compared with CC(=O)c1nn(CC(=O)N2[C@H](C(=O)N[C@H]3CCCC(C)(C)C3)C[C@@]3(CO)C[C@@H]23)c2ncccc12 [Example 116, (1R,3S,5S)-2-[2-(3-Acetyl-pyrazolo[3,4-b]pyridin-1-yl)-acetyl]-5-hydroxymethyl-2-aza-bicyclo[3.1.0]hexane-3-carboxylic acid ((S)-3,3-dimethyl-cyclohexyl)-amide], C[C@]1(CO)CCC[C@@H](NC(=O)[C@@H]2C[C@H]3C[C@H]3N2C(=O)Cn2nc(C(N)=O)c3ccccc32)C1 [Example 127, 1-(2-((1R,3S,5R)-3-(((1R,3S)-3-(hydroxymethyl)-3-methylcyclohexyl)carbamoyl)-2-azabicyclo[3.1.0]hexan-2-yl)-2-oxoethyl)-1H-indazole-3-carboxamide] is 20-fold lower in IC50: 1600 nM for the first, 80 nM for the second.

C[C@@]1(CO)CCC[C@H](NC(=O)[C@@H]2C[C@H]3C[C@H]3N2C(=O)Cn2nc(C(N)=O)c3ccccc32)C1 [Example 128, 1-(2-((1R,3S,5R)-3-(((1S,3R)-3-(hydroxymethyl)-3-methylcyclohexyl)carbamoyl)-2-azabicyclo[3.1.0]hexan-2-yl)-2-oxoethyl)-1H-indazole-3-carboxamide] was tested, and the IC50 was 2210 nM.

same assay, conditions: read-out: IC50

Compared with CC(=O)c1nn(CC(=O)N2[C@@H]3C[C@@H]3C[C@H]2C(=O)NC2CC(F)(F)C2)c2ccc(OCc3ncccn3)cc12 [Example 104, (1R,3S,5R)-2-{2-[3-Acetyl-5-(pyrimidin-2-ylmethoxy)-indazol-1-yl]-acetyl}-2-aza-bicyclo[3.1.0]hexane-3-carboxylic acid (3,3-difluoro-cyclobutyl)-amide], CC(=O)c1nn(CC(=O)N2[C@@H]3C[C@@H]3C[C@H]2C(=O)N[C@H]2C[C@H](O)CC(C)(C)C2)c2ccccc12 [Example 124, (1R,3S,5R)-2-(2-(3-acetyl-1H-indazol-1-yl)acetyl)-N-((1R,5R)-5-hydroxy-3,3-dimethylcyclohexyl)-2-azabicyclo[3.1.0]hexane-3-carboxamide] is 27-fold lower in IC50: 273 nM for the first, 10 nM for the second. The second is the more potent here.

Compared with CO[C@@H]1C[C@@H](NC(=O)[C@@H]2C[C@H]3C[C@H]3N2C(=O)Cn2nc(C(N)=O)c3ccccc32)CC(C)(C)C1 [Example 105, 1-{2-[(1R,3S,5R)-3-((1S,5S)-5-Methoxy-3,3-dimethyl-cyclohexylcarbamoyl)-2-aza-bicyclo[3.1.0]hex-2-yl]-2-oxo-ethyl}-1H-indazole-3-carboxylic acid amide], CO[C@H]1C[C@H](NC(=O)[C@@H]2C[C@H]3C[C@H]3N2C(=O)Cn2nc(C(N)=O)c3ccccc32)CC(C)(C)C1 [Example 106, 1-{2-[(1R,3S,5R)-3-((1R,5R)-5-Methoxy-3,3-dimethyl-cyclohexylcarbamoyl)-2-aza-bicyclo[3.1.0]hex-2-yl]-2-oxo-ethyl}-1H-indazole-3-carboxylic acid amide] is 12-fold lower in IC50: 225 nM for the first, 18 nM for the second. The second is the more potent here.

First: COC1CC(NC(=O)[C@@H]2C[C@H]3C[C@H]3N2C(=O)Cn2nc(C(N)=O)c3ccccc32)CC(C)(C)C1 (stereo partly drawn) [Example 107, 1-{2-[(1R,3S,5R)-3-(cis-5-Methoxy-3,3-dimethyl-cyclohexylcarbamoyl)-2-aza-bicyclo[3.1.0]hex-2-yl]-2-oxo-ethyl}-1H-indazole-3-carboxylic acid amide]
Second: CC(=O)c1nn(CC(=O)N2[C@@H]3C[C@@H]3C[C@H]2C(=O)N[C@@H]2C[C@@H](O)CC(C)(C)C2)c2ccccc12 [Example 125, (1R,3S,5R)-2-(2-(3-acetyl-1H-indazol-1-yl)acetyl)-N-((1S,5S)-5-hydroxy-3,3-dimethylcyclohexyl)-2-azabicyclo[3.1.0]hexane-3-carboxamide]
The IC50 of the first is 2.4-fold lower: 467 nM for the first, 1100 nM for the second. The first is the more potent here.

First: CC(=O)c1nn(CC(=O)N2[C@H](C(=O)N[C@@H]3CCCC(C)(C)C3)C[C@@]3(CO)C[C@@H]23)c2cnccc12 [Example 121, (1R,3S,5S)-2-[2-(3-Acetyl-pyrazolo[3,4-c]pyridin-1-yl)-acetyl]-5-hydroxymethyl-2-aza-bicyclo[3.1.0]hexane-3-carboxylic acid ((R)-3,3-dimethyl-cyclohexyl)-amide]
Second: CC(=O)c1nn(CC(=O)N2[C@H](C(=O)N[C@H]3CCCC(C)(C)C3)C[C@@]3(CO)C[C@@H]23)c2cnccc12 [Example 122, (1R,3S,5S)-2-[2-(3-Acetyl-pyrazolo[3,4-c]pyridin-1-yl)-acetyl]-5-hydroxymethyl-2-aza-bicyclo[3.1.0]hexane-3-carboxylic acid ((S)-3,3-dimethyl-cyclohexyl)-amide]
The IC50 of the first is 150-fold lower: 15 nM for the first, 2200 nM for the second.
